Experimental data from PMC8762671 (Chemical research in toxicology, 2021).

Assays:
[1] = system: human iPSC-derived cardiomyocytes; conditions: standard donor 1434 compared to the other 4 donors; ref [36]; cited from earlier work
[2] = system: human iPSC-derived cardiomyocytes; experiment: Ca2+ flux assay; format: cell-based; conditions: for critical endpoint (most sensitive phenotype): phenotype with lowest POD for the population median

## COc1cc(N)c(Cl)cc1C(=O)NC1CCN(CCCOc2ccc(F)cc2)CC1OC (centres unmarked) [Cisapride, cisapride]
[1]
  efficacy (Emax, maximum increase in decay-rise ratio): greatest efficacy

## CC(C)NCC(O)c1ccc(O)c(O)c1 (centres unmarked) [Isoproterenol]
[2]; 10 μM, 90 min exposure, 5 donors, response vs vehicle control
  effect on beat rate ([+] chronotropy positive control): expected effects on beat rate

## COCCc1ccc(OCC(O)CNC(C)C)cc1 (centres unmarked) [metoprolol]
[2]
  critical endpoint (most sensitive phenotype): did not exhibit decay-rise ratio as the critical endpoint

## CC(C)NCC(O)COc1cccc2ccccc12 (centres unmarked) [propranolol]
[2]; 0.5 μM, 90 min exposure, 5 donors, response vs vehicle control
  effect on beat rate ([-] chronotropy positive control): expected effects on beat rate

## CC/C(=C(\c1ccccc1)c1ccc(OCCN(C)C)cc1)c1ccccc1 [tamoxifen]
[2]
  critical endpoint (most sensitive phenotype): did not exhibit decay-rise ratio as the critical endpoint
